Experimental findings from US10604554B2, “Double-acylated GLP-1 derivatives” (Novo Nordisk A/S, priority 2012, dated 2020) are described below.

Usually half-life stands for the time in which the quantity being followed falls by half. Lower therefore signals rapid decline. As a reminder, the EC50 is the midpoint of the concentration-response curve.

Data set [1] has as its system Landrace Yorkshire Duroc (LYD) pigs. The data set is described as follows: Pharmacodynamic (PD) study in pigs, food intake. As to conditions: single s.c. dose 3.0 nmol/kg; for PD in pig, food intake (% of vehicle) for hours 0-24: 0-24 h; for PD in pig, food intake (% of vehicle) for hours 24-48: 24-48 h. It is filed as in vivo, pig. The method, boiled down: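 Female LYD pigs (~3 months, 30-35 kg, n=3-4) in individual pens, fed ad libitum, received one subcutaneous dose (3.0 nmol/kg) in phosphate buffer vehicle on day 1. Food intake was logged every 15 min and expressed per 24 h interval as percentage of vehicle group; two-way repeated-measures ANOVA with Bonferroni post-test.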

Data set [2] in a line: in vivo. As to conditions: male, Göttingen, minipig, iv.
Description: The purpose of this study is to determine the protraction in vivo of the GLP-1 derivatives after i.v. administration to minipigs, i.e. the prolongation of their time of action. This is done in a pharmacokinetic (PK) study, where the terminal half-life of the derivative in question is determined. By terminal half-life is generally meant the period of time it takes to halve a certain plasma concentration, measured after the initial distribution phase.
Study A: Male Göttingen minipigs were obtained from Ellegaard Göttingen Minipigs (Dalmose, Denmark) approximately 7-14 months of age and weighing from approximately 16-35 kg were used in the studies. The minipigs were housed individually and fed restrictedly once or twice daily with SDS minipig diet (Special Diets Services, Essex, UK). After at least 2 weeks of acclimatisation two permanent central venous catheters were implanted in vena cava caudalis or cranialis in each animal. The animals were allowed 1 week recovery after the surgery, and were then used for repeated pharmacokinetic studies with a suitable wash-out period between successive GLP-1 derivative dosings.
The animals were fasted for approximately 18 h before dosing and from 0 to 4 h after dosing, but had ad libitum access to water during the whole period.
The GLP-1 derivatives were dissolved in 50 mM sodium phosphate, 145 mM sodium chloride, 0.05% tween 80, pH 7.4 to a concentration of usually from 20-60 nmol/ml. […] Blood samples (for example 0.8 ml) were collected in EDTA buffer (8 mM) and then centrifuged at 4° C. and 1942 G for 10 minutes.
Study B: Male Göttingen minipigs were obtained from Ellegaard Göttingen Minipigs (Dalmose, Denmark) approximately 5 months of age and weighing from approximately 9 kg were used in the studies. The minipigs were housed in pens with straw as bedding, six together in each pen and fed restrictedly once or twice daily with Altromin 9023 minipig diet (Chr. Petersen A/S, DK-4100 Ringsted) or Standard SMP(E) minipig diet (Special Diet Services (SDS), UK). The pigs were used for repeated pharmacokinetic studies with a suitable wash-out period between successive GLP-1 derivative dosings.
The GLP-1 derivatives were dissolved in 50 mM sodium phosphate, 145 mM sodium chloride, 0.05% tween 80, pH 7.4 to a concentration of usually from 20-60 nmol/ml. Intravenous injections (the volume corresponding to usually 2 nmol/kg, for example 0.1 ml/kg) of the compounds were given as intravenous injections via a Venflon inserted in an ear vein, while they are placed unanaesthetised in a sling. The dose volume was 0.1 ml/kg, and blood was sampled at predefined time points for up till 17 days post dosing (samples was taken with syringe from a jugular vein).
Individual plasma concentration-time profiles were analyzed by a non-compartmental model in Phoenix WinNonLin ver. […] (Pharsight Inc., Mountain View, Calif., USA), and the resulting terminal half-lives (harmonic mean) determined.
Another data set addresses T1, human GLP-1 receptor (Homo sapiens, UniProt P43220).
T1 construct: expressed in transfected cells; host or cells: BHK cells, clone FCW467-12A/KZ10-1 (parent line BHKTS13), further transfected with CRE luciferase
As to the kind of experiment: In vitro potency (AlphaScreen cAMP, membranes). Format: biochemical. Conditions: cAMP formation in membranes from BHK467-12A cells expressing human GLP-1 receptor; read-out: In vitro potency (AlphaScreen) EC50. The method, boiled down:
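AlphaScreen competition read-out (anti-cAMP acceptor beads vs biotinylated cAMP, 3 h room temperature) quantified cAMP made by human GLP-1 receptor membranes, 6 μg/well, from stably transfected BHK467-12A cells. Buffer pH 7.4 contained 1 mM ATP, 1 μM GTP, 0.5 mM IBMX and 0.1% BSA; cAMP standard curve included.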
(In general: In Alpha technology, singlet oxygen from a donor bead excites a nearby acceptor bead.)

Data set [3] in a line: in vivo. As to conditions: male, Sprague Dawley, rat, iv.

T1 sequence (P43220 24-463): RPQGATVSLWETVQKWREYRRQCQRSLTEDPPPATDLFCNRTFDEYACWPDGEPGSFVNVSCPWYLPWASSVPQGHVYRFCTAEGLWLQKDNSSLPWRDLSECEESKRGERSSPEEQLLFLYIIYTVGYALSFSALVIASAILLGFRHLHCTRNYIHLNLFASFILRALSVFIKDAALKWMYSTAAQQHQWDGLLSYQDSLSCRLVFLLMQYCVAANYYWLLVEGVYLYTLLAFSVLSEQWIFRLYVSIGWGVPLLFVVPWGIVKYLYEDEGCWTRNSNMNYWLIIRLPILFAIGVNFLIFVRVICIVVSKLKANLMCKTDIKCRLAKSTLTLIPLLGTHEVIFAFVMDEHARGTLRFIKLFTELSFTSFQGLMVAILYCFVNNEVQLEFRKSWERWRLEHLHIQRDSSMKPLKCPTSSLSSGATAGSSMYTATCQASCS

Take `CC[C@H](C)[C@H](NC(=O)[C@H](Cc1ccccc1)NC(=O)[C@H](CCC(=O)O)NC(=O)[C@H](CCCCNC(=O)[C@@H](N)CCCCNC(=O)COCCOCCNC(=O)COCCOCCNC(=O)CC[C@H](NC(=O)CCCCCCCCCCCCCCC(=O)O)C(=O)O)NC(=O)[C@H](C)NC(=O)[C@H](C)NC(=O)[C@H](CCC(N)=O)NC(=O)CNC(=O)[C@H](CCC(=O)O)NC(=O)[C@H](CC(C)C)NC(=O)[C@H](Cc1ccc(O)cc1)NC(=O)[C@H](CO)NC(=O)[C@H](CO)NC(=O)[C@@H](NC(=O)[C@H](CC(=O)O)NC(=O)[C@H](CO)NC(=O)[C@@H](NC(=O)[C@H](Cc1ccccc1)NC(=O)[C@@H](NC(=O)CNC(=O)[C@H](CCC(=O)O)NC(=O)C(C)(C)NC(=O)[C@@H](N)Cc1c[nH]cn1)[C@@H](C)O)[C@@H](C)O)C(C)C)C(=O)N[C@@H](C)C(=O)N[C@@H](Cc1c[nH]c2ccccc12)C(=O)N[C@@H](CC(C)C)C(=O)N[C@H](C(=O)N[C@@H](CCCNC(=N)N)C(=O)NCC(=O)N[C@@H](CCCNC(=N)N)C(=O)N[C@@H](CCCCNC(=O)[C@@H](N)CCCCNC(=O)COCCOCCNC(=O)COCCOCCNC(=O)CC[C@H](NC(=O)CCCCCCCCCCCCCCC(=O)O)C(=O)O)C(=O)O)C(C)C` [Example 10, N^ε26-[(2S)-2-amino-6-[[2-[2-[2-[[2-[2-[2-[[(4S)-4-carboxy-4-(15-carboxypentadecanoylamino)butanoyl]amino]ethoxy]ethoxy]acetyl]amino]ethoxy]ethoxy]acetyl]amino]hexanoyl], N^ε37-[(2S)-2-amino-6-[[2-[2-[2-[[2-[2-[2-[[(4S)-4-carboxy-4-(15-carboxypentadecanoylamino)butanoyl]amino]ethoxy]ethoxy]acetyl]amino]ethoxy]ethoxy]acetyl]amino]hexanoyl]-[Aib^8,Arg^34,Lys^37]-GLP-1-(7-37)-peptide]: in data set [1], the “PD in pig, food intake (% of vehicle) for hours 0-24” value is 105 % of vehicle and the “PD in pig, food intake (% of vehicle) for hours 24-48” value is given as 104 % of vehicle. The molecule further gave a half-life in the data set “in vivo [2]” of 97 h. Also, at human GLP-1 receptor, the EC50 turned out to be 0.492 nM. For the same molecule, the half-life in “in vivo [3]” is 28 h.

For `CC[C@H](C)[C@H](NC(=O)[C@H](Cc1ccccc1)NC(=O)[C@H](CCC(=O)O)NC(=O)[C@H](CCCCNC(=O)[C@@H](N)CCCCNC(=O)[C@@H](N)CCCCNC(=O)CC[C@H](NC(=O)CC[C@H](NC(=O)CCCCCCCCCCCCCCC(=O)O)C(=O)O)C(=O)O)NC(=O)[C@H](C)NC(=O)[C@H](C)NC(=O)[C@H](CCC(N)=O)NC(=O)CNC(=O)[C@H](CCC(=O)O)NC(=O)[C@H](CC(C)C)NC(=O)[C@H](Cc1ccc(O)cc1)NC(=O)[C@H](CO)NC(=O)[C@H](CO)NC(=O)[C@@H](NC(=O)[C@H](CC(=O)O)NC(=O)[C@H](CO)NC(=O)[C@@H](NC(=O)[C@H](Cc1ccccc1)NC(=O)[C@@H](NC(=O)CNC(=O)[C@H](CCC(=O)O)NC(=O)C(C)(C)NC(=O)[C@@H](N)Cc1c[nH]cn1)[C@@H](C)O)[C@@H](C)O)C(C)C)C(=O)N[C@@H](C)C(=O)N[C@@H](Cc1c[nH]c2ccccc12)C(=O)N[C@@H](CC(C)C)C(=O)N[C@H](C(=O)N[C@@H](CCCNC(=N)N)C(=O)NCC(=O)N[C@@H](CCCNC(=N)N)C(=O)N[C@@H](CCCCNC(=O)[C@@H](N)CCCCNC(=O)[C@@H](N)CCCCNC(=O)CC[C@H](NC(=O)CC[C@H](NC(=O)CCCCCCCCCCCCCCC(=O)O)C(=O)O)C(=O)O)C(=O)O)C(C)C` [Example 12, N^ε26-[(2S)-2-amino-6-[[(2S)-2-amino-6-[[(4S)-4-carboxy-4-[[(4S)-4-carboxy-4-(15-carboxypentadecanoylamino)butanoyl]amino]butanoyl]amino]hexanoyl]amino]hexanoyl], N^ε37-[(2S)-2-amino-6-[[(2S)-2-amino-6-[[(4S)-4-carboxy-4-[[(4S)-4-carboxy-4-(15-carboxypentadecanoylamino)butanoyl]amino]butanoyl]amino]hexanoyl]amino]hexanoyl]-[Aib^8,Arg^34, Lys^37]-GLP-1-(7-37)-peptide], the figures for the half-life in “in vivo [2]” and in “in vivo [3]” were 109 h and 28 h, respectively. The EC50 at human GLP-1 receptor turned out to be 0.227 nM.

In the case of `CC[C@H](C)[C@H](NC(=O)[C@H](Cc1ccccc1)NC(=O)[C@H](CCC(=O)O)NC(=O)[C@H](CCCCNC(=O)[C@@H](N)CCCCNC(=O)CC[C@H](NC(=O)CC[C@H](NC(=O)CC[C@H](NC(=O)CCCCCCCCCCCCCCC(=O)O)C(=O)O)C(=O)O)C(=O)O)NC(=O)[C@H](C)NC(=O)[C@H](C)NC(=O)[C@H](CCC(N)=O)NC(=O)CNC(=O)[C@H](CCC(=O)O)NC(=O)[C@H](CC(C)C)NC(=O)[C@H](Cc1ccc(O)cc1)NC(=O)[C@H](CO)NC(=O)[C@H](CO)NC(=O)[C@@H](NC(=O)[C@H](CC(=O)O)NC(=O)[C@H](CO)NC(=O)[C@@H](NC(=O)[C@H](Cc1ccccc1)NC(=O)[C@@H](NC(=O)CNC(=O)[C@H](CCC(=O)O)NC(=O)C(C)(C)NC(=O)[C@@H](N)Cc1c[nH]cn1)[C@@H](C)O)[C@@H](C)O)C(C)C)C(=O)N[C@@H](C)C(=O)N[C@@H](Cc1c[nH]c2ccccc12)C(=O)N[C@@H](CC(C)C)C(=O)N[C@H](C(=O)N[C@@H](CCCNC(=N)N)C(=O)NCC(=O)N[C@@H](CCCNC(=N)N)C(=O)N[C@@H](CCCCNC(=O)[C@@H](N)CCCCNC(=O)CC[C@H](NC(=O)CC[C@H](NC(=O)CC[C@H](NC(=O)CCCCCCCCCCCCCCC(=O)O)C(=O)O)C(=O)O)C(=O)O)C(=O)O)C(C)C` [Example 13, N^ε26-[(2S)-2-amino-6-[[(4S)-4-carboxy-4-[[(4S)-4-carboxy-4-[[(4S)-4-carboxy-4-(15-carboxypentadecanoylamino)butanoyl]amino]butanoyl]amino]butanoyl]amino]hexanoyl], N^ε37-[(2S)-2-amino-6-[[(4S)-4-carboxy-4-[[(4S)-4-carboxy-4-[[(4S)-4-carboxy-4-(15-carboxypentadecanoylamino)butanoyl]amino]butanoyl]amino]butanoyl]amino]hexanoyl]-[Aib^8,Arg^34,Lys^37]-GLP-1-(7-37)-peptide], the half-life in “in vivo [2]” is 93 h; in “in vivo [3]”, 31 h. For the same molecule, at human GLP-1 receptor, the EC50 turned out to be 0.385 nM.

For `CC[C@H](C)[C@H](NC(=O)[C@H](Cc1ccccc1)NC(=O)[C@H](CCC(=O)O)NC(=O)[C@H](CCCCNC(=O)[C@@H](N)CCCCNC(=O)COCCOCCNC(=O)COCCOCCNC(=O)CC[C@H](NC(=O)CCCCCCCCCCCCC(=O)O)C(=O)O)NC(=O)[C@H](C)NC(=O)[C@H](C)NC(=O)[C@H](CCC(N)=O)NC(=O)CNC(=O)[C@H](CCC(=O)O)NC(=O)[C@H](CC(C)C)NC(=O)[C@H](Cc1ccc(O)cc1)NC(=O)[C@H](CO)NC(=O)[C@H](CO)NC(=O)[C@@H](NC(=O)[C@H](CC(=O)O)NC(=O)[C@H](CO)NC(=O)[C@@H](NC(=O)[C@H](Cc1ccccc1)NC(=O)[C@@H](NC(=O)CNC(=O)[C@H](CCC(=O)O)NC(=O)C(C)(C)NC(=O)[C@@H](N)Cc1c[nH]cn1)[C@@H](C)O)[C@@H](C)O)C(C)C)C(=O)N[C@@H](C)C(=O)N[C@@H](Cc1c[nH]c2ccccc12)C(=O)N[C@@H](CC(C)C)C(=O)N[C@H](C(=O)N[C@@H](CCCNC(=N)N)C(=O)NCC(=O)N[C@@H](CCCNC(=N)N)C(=O)N[C@@H](CCCCNC(=O)[C@@H](N)CCCCNC(=O)COCCOCCNC(=O)COCCOCCNC(=O)CC[C@H](NC(=O)CCCCCCCCCCCCC(=O)O)C(=O)O)C(=O)O)C(C)C` [Example 19, N^ε26-[(2S)-2-amino-6-[[2-[2-[2-[[2-[2-[2-[[(4S)-4-carboxy-4-(13-carboxytridecanoylamino)butanoyl]amino]ethoxy]ethoxy]acetyl]amino]ethoxy]ethoxy]acetyl]amino]hexanoyl], N^ε37-[(2S)-2-amino-6-[[2-[2-[2-[[2-[2-[2-[[(4S)-4-carboxy-4-(13-carboxytridecanoylamino)butanoyl]amino]ethoxy]ethoxy]acetyl]amino]ethoxy]ethoxy]acetyl]amino]hexanoyl]-[Aib^8,Arg^34,Lys^37]-GLP-1-(7-37)-peptide], in data set [1], the “PD in pig, food intake (% of vehicle) for hours 0-24” value is given as 52 % of vehicle and the “PD in pig, food intake (% of vehicle) for hours 24-48” value is on record as 64 % of vehicle. The half-life in “in vivo [2]” is 56 h. The EC50 on human GLP-1 receptor worked out at 0.057 nM. This molecule showed a half-life in the data set “in vivo [3]” of 13 h.
